Experimental data from PubChem BioAssay (NCI).
Several values for one entry are separate records, joined by “and”; a condition that tells them apart may be missing. Equal entries are not always repeated.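 Five concentrations, 48 hours, 96-well plates. Here, GI50 denotes the concentration required for 50% inhibition of growth. TGI: total growth inhibition.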 Where a SMILES comes first, the peptide text is derived from it.

Experiments:
Assay in all cases: DTP human tumour cell line panel, 48 h
SK-MEL-5 melanoma = system: SK-MEL-5 melanoma
DU-145 prostate = system: DU-145 prostate
HOP-62 NSCLC = system: HOP-62 NSCLC
T-47D breast = system: T-47D breast
BT-549 breast = system: BT-549 breast
CCRF-CEM leukemia = system: CCRF-CEM leukemia
HOP-92 NSCLC = system: HOP-92 NSCLC
NCI-H460 lung = system: NCI-H460 lung
SK-MEL-2 melanoma = system: SK-MEL-2 melanoma
HCT-15 colon = system: HCT-15 colon

| SMILES | GI50 (SK-MEL-5 melanoma) [µM] | TGI (SK-MEL-5 melanoma) | GI50 (DU-145 prostate) [µM] | TGI (DU-145 prostate) | GI50 (HOP-62 NSCLC) | TGI (HOP-62 NSCLC) | GI50 (T-47D breast) [µM] | TGI (T-47D breast) | TGI (BT-549 breast) | TGI (CCRF-CEM leukemia) | GI50 (HOP-92 NSCLC) [µM] | TGI (HOP-92 NSCLC) | GI50 (NCI-H460 lung) | TGI (NCI-H460 lung) | GI50 (SK-MEL-2 melanoma) [µM] | TGI (SK-MEL-2 melanoma) | GI50 (HCT-15 colon) [µM] | TGI (HCT-15 colon) | GI50 (BT-549 breast) |
| --- | --- | --- | --- | --- | --- | --- | --- | --- | --- | --- | --- | --- | --- | --- | --- | --- | --- | --- | --- |
| CCN(CC)CCC(=O)O[C@H]1CC[C@H](CC(C)[C@H]2CC(=O)C(C)C=C(C)[C@H](OC(=O)CCN(CC)CC)C(OC)C(=O)[C@@H](C)CC(C)/C=C/C=C/C=C(C)C(OC)CC3CC[C@H](C)[C@](O)(O3)C(=O)C(=O)N3CCCCC3C(=O)O2)CC1OC (stereo partly specified) | 0.0401 | 1.85 µM and 2.16 µM | 1.17 | > 10 µM and 8.38 µM | 0.00257 µM and 0.00547 µM | 1.73 µM and 2.75 µM | 0.0267 | 4.12 µM | 0.946 µM | > 10 µM and 1.57 µM | 0.025 | 4.31 µM and 1.62 µM | 0.292 µM and 1.34 µM | 3.48 µM and 2.69 µM | 0.359 | 1.91 µM | 0.0922 | 4.46 µM and 3.84 µM | – |
| CCOP(=O)(OCC)C(=C1C=C(C(C)(C)C)C(=O)C(C(C)(C)C)=C1)P(=O)(OCC)OCC | – | > 10 µM | – | > 10 µM | – | > 10 µM | – | 4.04 µM | 5.16 µM | > 6.32 µM | – | 6.37 µM | – | > 10 µM | – | > 10 µM | – | > 6.87 µM | – |
| COc1ccc(N2C(=O)C3c4[nH]c5ccc(OCc6ccccc6)cc5c4C4CCC(C(C)C)CC4C3C2=O)cc1 (stereo unspecified) | – | > 100 µM | – | > 100 µM | – | 36.4 µM | – | > 100 µM | > 60.4 µM | 31.3 µM | – | 93.2 µM | – | > 45.8 µM | – | 40.3 µM | – | > 100 µM | – |
| Cc1ccc(N2C(=O)C(=O)N(/N=C3\C(=O)Nc4ccccc43)C2=S)cc1 | – | > 100 µM | – | > 100 µM | – | > 100 µM | – | > 100 µM | > 100 µM | > 100 µM | – | > 100 µM | – | > 100 µM | – | > 100 µM | – | > 100 µM | – |
| C(=N/NC1=NCCN1)/c1c2ccccc2c(/C=N\NC2=NCCN2)c2ccccc12 | – | 0.214 µM and 0.896 µM and 0.761 µM | 0.0878 | 0.623 µM and 3.43 µM | – | 0.611 µM and 1.75 µM and 0.597 µM | 0.174 | 0.939 µM and 4.13 µM | 0.892 µM and 0.347 µM | 1.92 µM and 1.13 µM and 1.33 µM | – | 0.547 µM and 0.967 µM and 0.34 µM | – | 0.335 µM and 0.33 µM and 0.159 µM | – | 0.271 µM and 0.747 µM and 0.422 µM | – | 214 µM | 0.244 µM and 0.096 µM |
| Cc1cc(-c2ccc(C(=O)C(c3ccccc3)(c3ccccc3)c3ccccc3)[nH]2)on1 | – | 29.4 µM | – | 50.3 µM | – | 53.5 µM | – | > 100 µM | 45.8 µM | 52.9 µM | – | 51.8 µM | – | 21.6 µM | – | 36 µM | – | 41.6 µM | – |
| CSc1nc(-c2ccc(Cl)cc2)c(C#N)c(=O)[nH]1 | – | > 100 µM | – | > 100 µM | – | > 100 µM | – | > 100 µM | > 100 µM | > 100 µM | – | 97.7 µM | – | > 100 µM | – | > 100 µM | – | > 100 µM | – |
| CC(=O)NC(CO)C(=O)NC(Cc1ccc(O)cc1)C(=O)NCC(N)=O (stereo not drawn) (Ac-Ser-Tyr-Gly-NH2; configuration not given here) | – | > 100 µM | – | > 100 µM | – | > 100 µM | – | > 100 µM | > 100 µM | > 100 µM | – | > 100 µM | – | > 100 µM | – | > 100 µM | – | > 100 µM | – |
| CC(=O)Nc1nnc(S(=O)(=O)NC(=S)Nc2ccc(Cl)cc2)s1 | – | > 100 µM | – | > 100 µM | – | > 100 µM | – | > 100 µM | > 100 µM | > 100 µM | – | > 100 µM | – | > 100 µM | – | > 100 µM | – | > 100 µM | – |
| COC(=O)C1=NN2c3ccccc3CN([C@@H](C)c3ccccc3)C(=O)[C@H]2[C@@H]1C | – | 30.1 µM | – | > 100 µM | – | > 100 µM | – | 88.3 µM | 95.3 µM | > 100 µM | – | > 100 µM | – | > 100 µM | – | > 100 µM | – | > 100 µM | – |
| NCCC1([N+](=O)[O-])CCNCC1 | – | > 100 µM | – | > 100 µM | – | > 100 µM | – | > 100 µM | > 100 µM | > 100 µM | – | > 100 µM | – | > 100 µM | – | > 100 µM | – | > 100 µM | – |
| CN1CCCC(C(=O)OCC(=O)C2(O)CCC3C4CCC5=CC(=O)CCC5(C)C4C(O)CC32C)C1 (stereo unspecified) | – | 41.3 µM | – | 45.1 µM | – | 31 µM | – | 34.5 µM | 33.6 µM | 35.6 µM | – | > 100 µM | – | 28.5 µM | – | 39.3 µM | – | 44.1 µM | – |
| COC(=O)CCC(C)[C@H]1CCC2C3C(C[C@H](OC(C)=O)[C@@]21C)[C@@]1(C)CCC2(C[C@H]1C[C@H]3OC(C)=O)OOC1(CCCCC1)OO2 (stereo partly specified) | – | > 100 µM | – | > 100 µM | – | 8.31 µM | – | > 100 µM | > 100 µM | > 100 µM | – | 26.5 µM | – | > 100 µM | – | > 100 µM | – | > 100 µM | – |
| COC(=O)CNCC1OC2OC(C)(C)OC2C1N=[N+]=[N-] (stereo unspecified) | – | > 100 µM | – | > 100 µM | – | > 100 µM | – | > 100 µM | > 100 µM | > 100 µM | – | > 100 µM | – | > 100 µM | – | > 100 µM | – | > 100 µM | – |
| CC(=O)Oc1cc(S(=O)(=O)Nc2n[nH]c(N)n2)c(S)cc1Cl | – | > 100 µM | – | > 100 µM | – | > 100 µM | – | > 100 µM | > 100 µM | > 100 µM | – | > 100 µM | – | > 100 µM | – | > 100 µM | – | > 100 µM | – |
| CC1=C(C)C(=O)C(C2=C(C3=CC(=O)C(C)=C(C)C3=O)C(=O)c3ccccc3C2=O)=CC1=O | – | 12.6 µM | – | 8.06 µM | – | 31.8 µM | – | 12.4 µM | 7.16 µM | 7.22 µM | – | 6.72 µM | – | 37.7 µM | – | 5.71 µM | – | 5.53 µM | – |
